In patent publication US20240226042A9, “A PROPYL PROPANE THI[…] FOR USE AS ANTITUMORAL” (DMC RESEARCH CENTER, SL, priority 2021, published 2024):

What was measured:
[1] = test system: normal human peripheral blood mononuclear cells (PBMCs); conditions: normal PBMCs from healthy volunteers, 72 hours induction, MTT; means±SEM of six independent determinations
Protocol: (§1) Adherent cells were incubated for 24 hours to get cells attached to the surface of the flask. Then, the culture medium was replaced for a new medium, to which increasing concentrations of PTSO had been added, and the induction was conducted for 72 hours.

[2] = test system: Jurkat (human tumor T lymphocytes line)
Protocol: as §1

[3] = test system: rats; conditions: OECD guideline 408, 90-days oral subchronic toxicity study; cited from earlier work
[4] = test system: T-84 (human colorectal adenocarcinoma line); conditions: T-84 cells, 72 hours induction, SRB; means±SEM of six independent determinations
Source text: (§2) A-549 (Reference CCL-185 of the American Type Culture Collection): It is a tumor line of basal alveolar epithelium that comes from a pulmonary adenocarcinoma removed from a patient. These cells are squamous and can synthesize lecithin. T-84 (Reference CCL-248 of the American Type Culture Collection): It is a tumor line with epithelial morphology, isolated from a pulmonary metastasis of a colorectal carcinoma of a patient. These cells present receptors for a large group of hormones and neurotransmitters, and they produce carcinoembryonic antigen (CEA) and keratin, among other cellular products.
(§3) Adherent cells (MCF-7, A-549, T-84, HT-29 and Panc-1), were detached from the surface of the culture flasks, using 3-4 ml of trypsin 1×, and left to act for 5-10 minutes in an incubator at 37° C. with 5% CO2. Once the cells were detached, the trypsinization was stopped, adding to the medium flask the same amount of complete culture as trypsin used to detach cells. After resuspending the mixture of trypsin and detached cells several times, the content of the culture flask was transferred to a sterile tube to centrifugation it for 5 minutes at 1500-1600 rpm.
(§4) Adherent cells were incubated for 24 hours to get cells attached to the surface of the flask. […]

[5] = test system: A-549 (human lung adenocarcinoma line); conditions: A-549 cells, 72 hours induction, SRB; means±SEM of six independent determinations
Source text: as §2, §3, §4

[6] = test system: HT-29 (human colorectal carcinoma line); conditions: HT-29 cells, 72 hours induction, SRB; means±SEM of six independent determinations
Protocol: as §3, §1

[7] = test system: Panc-1 (human pancreatic carcinoma line); conditions: Panc-1 cells, 72 hours induction, SRB; means±SEM of six independent determinations
Protocol: as §3, §1

[8] = test system: MCF-7 (human breast adenocarcinoma line)
Protocol: as §3, §1

## CCCSS(=O)(=O)CCC [PTSO, propyl propane thiosulfonate]
[1]
  IC50: 248 µM
[2]; IC50 PBMCs / IC50 Jurkat tumor line
  in vitro T.I (IC50 Normal Line/IC50 Tumor Line): 15.8
[2]; Jurkat cells, 72 hours induction, MTT, means±SEM of six independent determinations
  IC50: 15.7 µM
[3]
  no-observed-adverse-effect level (NOAEL): 55 mg/kg/day
[4]
  IC50: 37.3 µM
[5]
  IC50: 38.6 µM
[6]
  IC50: 50.8 µM
[7]
  IC50: 33.8 µM
[8]; IC50 PBMCs / IC50 MCF-7 tumor line
  in vitro T.I (IC50 Normal Line/IC50 Tumor Line): 36.0
[8]; MCF-7 cells, 72 hours induction, SRB, means±SEM of six independent determinations
  IC50: 6.9 µM
